Results published in the NIST ThermoML archive (doi:10.1016/j.jct.2005.03.016).

Assay: xn = mol fraction of the nth substance listed
Conditions: Liquid, Vibrating tube method

CC1CCCCC1 [methylcyclohexane] + CCO
mass density [kg/m3]
Conditions	100 kPa	5000 kPa	10000 kPa	15000 kPa	20000 kPa	25000 kPa	30000 kPa	35000 kPa	40000 kPa	45000 kPa
283.15 K, x2 = 0	777.6	781.4	785.2	788.7	792.1	795.3	798.5	801.5	804.4	807.3
283.15 K, x2 = 0.052	777.6	781.4	785.1	788.7	792.1	795.4	798.5	801.6	804.5	807.4
283.15 K, x2 = 0.125	777.7	781.6	785.3	788.9	792.4	795.6	798.8	801.9	804.8	807.7
283.15 K, x2 = 0.25	778.5	782.4	786.2	789.8	793.2	796.6	799.7	802.8	805.8	808.7
283.15 K, x2 = 0.375	779.8	783.6	787.4	791.1	794.6	797.9	801.1	804.2	807.2	810.1
283.15 K, x2 = 0.5	781.4	785.3	789.1	792.8	796.3	799.6	802.8	806	809	811.9
283.15 K, x2 = 0.625	783.5	787.4	791.3	794.9	798.5	801.8	805.1	808.2	811.3	814.2
283.15 K, x2 = 0.75	786.4	790.4	794.3	797.9	801.5	804.9	808.1	811.3	814.3	817.2
283.15 K, x2 = 0.875	790.9	794.8	798.7	802.4	805.9	809.3	812.6	815.8	818.8	821.8
293.15 K, x2 = 0	769	773	777	780.7	784.3	787.8	791.1	794.2	797.3	800.2
293.15 K, x2 = 0.052	768.8	772.8	776.8	780.6	784.2	787.6	790.9	794.1	797.2	800.2
293.15 K, x2 = 0.125	768.9	772.9	776.9	780.7	784.4	787.8	791.2	794.4	797.5	800.5
293.15 K, x2 = 0.25	769.6	773.7	777.8	781.6	785.2	788.7	792.1	795.3	798.4	801.5
293.15 K, x2 = 0.375	770.8	774.9	779	782.8	786.5	790	793.4	796.7	799.8	802.8
293.15 K, x2 = 0.5	772.5	776.6	780.7	784.5	788.2	791.8	795.2	798.4	801.6	804.6
293.15 K, x2 = 0.625	774.6	778.8	782.9	786.8	790.5	794	797.4	800.7	803.9	806.9
293.15 K, x2 = 0.75	777.7	781.8	785.9	789.9	793.6	797.1	800.5	803.8	807	810
293.15 K, x2 = 0.875	782.2	786.4	790.5	794.4	798.1	801.7	805.1	808.4	811.6	814.6
303.15 K, x2 = 0	760.4	764.7	768.9	772.8	776.6	780.2	783.7	787	790.2	793.3
303.15 K, x2 = 0.052	760.1	764.4	768.6	772.6	776.5	780.1	783.6	786.9	790.1	793.2
303.15 K, x2 = 0.125	760.1	764.4	768.6	772.7	776.5	780.2	783.6	787	790.3	793.4
303.15 K, x2 = 0.25	760.7	765.1	769.4	773.4	777.3	781	784.5	787.9	791.2	794.3
303.15 K, x2 = 0.375	761.9	766.3	770.6	774.7	778.6	782.3	785.8	789.2	792.5	795.7
303.15 K, x2 = 0.5	763.6	768	772.3	776.4	780.3	784	787.6	791	794.3	797.4
303.15 K, x2 = 0.625	765.8	770.2	774.5	778.6	782.5	786.3	789.9	793.3	796.6	799.8
303.15 K, x2 = 0.75	768.9	773.3	777.7	781.8	785.7	789.4	793.1	796.5	799.8	803
303.15 K, x2 = 0.875	773.5	777.9	782.3	786.4	790.3	794	797.6	801.1	804.4	807.6
313.15 K, x2 = 0	751.7	756.2	760.7	764.8	768.8	772.7	776.3	779.8	783.1	786.4
313.15 K, x2 = 0.052	751.1	755.7	760.1	764.4	768.4	772.2	775.9	779.4	782.8	786.1
313.15 K, x2 = 0.125	751	755.7	760.2	764.5	768.5	772.4	776.1	779.6	783	786.3
313.15 K, x2 = 0.25	751.6	756.3	760.9	765.2	769.3	773.2	776.9	780.5	783.9	787.2
313.15 K, x2 = 0.375	752.7	757.4	762	766.4	770.5	774.4	778.1	781.7	785.2	788.5
313.15 K, x2 = 0.5	754.4	759.1	763.7	768.1	772.2	776.1	779.9	783.5	786.9	–
313.15 K, x2 = 0.625	756.7	761.4	766	770.4	774.5	778.4	782.2	785.8	789.3	–
313.15 K, x2 = 0.75	759.9	764.6	769.2	773.6	777.7	781.6	785.4	789	792.5	–
313.15 K, x2 = 0.875	764.7	769.3	773.9	778.3	782.4	786.3	790.1	793.7	797.1	–
